One data set deals with T1, androgen receptor (AR) (Homo sapiens, UniProt P10275, T878A).
T1 construct: LNCaP cells were transiently transfected with the PSA (6.1 kb)-luciferase reporter for 24 h; endogenous in cells; host or cells: LNCaP
T1 sequence (P10275 1-920 T878A): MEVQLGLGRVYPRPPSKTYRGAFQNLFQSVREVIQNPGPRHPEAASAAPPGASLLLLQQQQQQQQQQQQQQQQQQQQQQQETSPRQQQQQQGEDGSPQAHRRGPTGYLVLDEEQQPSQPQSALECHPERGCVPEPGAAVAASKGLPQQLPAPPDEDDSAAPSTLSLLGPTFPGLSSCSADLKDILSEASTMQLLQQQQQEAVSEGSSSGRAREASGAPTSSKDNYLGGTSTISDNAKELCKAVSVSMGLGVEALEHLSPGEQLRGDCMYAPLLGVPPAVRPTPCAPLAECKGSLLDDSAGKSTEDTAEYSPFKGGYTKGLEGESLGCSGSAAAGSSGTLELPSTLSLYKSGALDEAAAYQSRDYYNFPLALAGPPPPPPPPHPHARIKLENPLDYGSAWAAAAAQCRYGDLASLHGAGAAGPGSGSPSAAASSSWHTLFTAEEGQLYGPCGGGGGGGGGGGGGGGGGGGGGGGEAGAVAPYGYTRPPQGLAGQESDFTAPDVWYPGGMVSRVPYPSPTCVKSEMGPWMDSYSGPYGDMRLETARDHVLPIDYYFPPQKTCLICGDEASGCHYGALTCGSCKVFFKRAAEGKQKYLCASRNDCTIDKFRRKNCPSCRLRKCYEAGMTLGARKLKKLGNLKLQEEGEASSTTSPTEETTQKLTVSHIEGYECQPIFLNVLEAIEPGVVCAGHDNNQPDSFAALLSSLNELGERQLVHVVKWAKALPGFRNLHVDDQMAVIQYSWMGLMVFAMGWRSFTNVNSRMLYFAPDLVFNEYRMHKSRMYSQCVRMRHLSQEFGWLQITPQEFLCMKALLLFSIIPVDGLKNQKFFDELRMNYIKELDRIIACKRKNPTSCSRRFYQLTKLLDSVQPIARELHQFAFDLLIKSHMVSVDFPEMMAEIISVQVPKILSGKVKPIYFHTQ
In words: Androgen-induced PSA (6.1 kb)-luciferase reporter assay in LNCaP cells. In kind it is cell-based. To be noted: LNCaP cells transfected with PSA (6.1 kb)-luciferase reporter, R1881 1 nM, 24 h; read-out: PSA-Luc IC50 Range. As to the method: The PSA (6.1 kb)-luciferase reporter contains functional AREs (androgen response elements) to which AR binds in response to androgen to induce luciferase activity.
Cells were lysed using Passive Lysis Buffer (Promega) and then collected into V-bottom 96-well tissue culture plates. Lysates were centrifuged at 4° C. for 5 minutes at 3000 rpm. To measure luminescence of LNCaP cell lysates the Firefly Luciferase Assay System (Promega) was employed, according to manufacturer's protocol. Relative luminescence units (RLU) in cell lysates were detected for 10 seconds using Promega GloMax-Multi Detection Luminometer (Promega). Values were normalized to protein content. GraphPad Prism graphing software was used to calculate IC50 values.
Comparisons between treatment and control groups were compared using Two-Way ANOVA with post-hoc Dunnett's and Tukey's tests. Differences were considered statistically significant at P values less than 0.05.

Data set [1] is described as follows: Microsomal stability assay, human liver microsomes. The conditions noted are these: pH 7.4, 1 μM compound, 0.5 mg/mL protein, 37° C., read-out: HLM +/− NADPH: Clint (μL/min/mg protein). The data set is classed as in vitro ADME. The procedure:
(§1) Microsomal stability assay is a widely used in vitro model to characterize the metabolic conversion by phase I enzymes, such as cytochrome P450 (CYP) enzymes. Since metabolism is known to be highly variable in different species, microsomal stability assay is commonly run in multiple species. Metabolic stability of testing compound can be evaluated using human, rat, mouse, or other animal liver or intestine microsomes to predict intrinsic clearance.
(§2) The assay was carried out in 96-well microtiter plates at 37° C. Reaction mixtures (25 μL) contained a final concentration of 1 μM test compound, 0.5 mg/mL liver microsomes protein, and 1 mM NADPH and/or 1 mM UDPGA (with alamethicin) in 100 mM potassium phosphate, pH 7.4 buffer with 3 mM MgCl2. The incubation was done with N=1, but duplicate incubation at each time point can be prepared if necessary. At each of the time points (for example, 0, 15, 30, and 60 minutes), 150 μL of quench solution (100% acetonitrile with 0.1% formic acid) with internal standard was transferred to each well. Besides the zero minute controls, mixtures containing the same components except the NADPH can also be prepared as the negative control. Verapamil was included as a positive control to verify assay performance. Plates were sealed, vortexed, and centrifuged at 4° C. for 15 minutes at 4000 rpm. The supernatant is transferred to fresh plates for LC/MS/MS analysis.
(§3) Summarized conditions: [Compound]=[…], [LM]=0.5 mg/mL, [NADPH]=1 mM and/or [UDPGA]=1 mM, Buffer=100 mM Potassium Phosphate, pH 7.4 with 3 mM MgCl2, Time=0, 15, 30, and 60 min, and Temperature=37° C.
(§4) All samples were analyzed on LC/MS/MS using an AB Sciex API 4000 instrument, coupled to a Shimadzu LC-20AD LC Pump system. Analytical samples were separated using a Waters Atlantis T3 dC18 reverse phase HPLC column (20 mm×2.1 mm) at a flow rate of 0.5 mL/min. The mobile phase consisted of 0.1% formic acid in water (solvent A) and 0.1% formic acid in 100% acetonitrile (solvent B).
(§5) The extent of metabolism is calculated as the disappearance of the test compound, compared to the 0-min time incubation. Initial rates are calculated for the compound concentration and used to determine half-life (t½) values and subsequently, the intrinsic clearance (Clint). Clint=(0.693)(1/t½ (min))(g of liver/kg of body weight)(mL incubation/mg of microsomal protein)(45 mg of microsomal protein/g of liver weight)

Data set [2] is described as follows: Microsomal stability assay, mouse liver microsomes. The data set is classed as in vitro ADME. To be noted: mouse, liver microsomes, pH 7.4, mouse liver microsomes, 1 μM compound, 0.5 mg/mL protein, 37° C.; read-out: MLM +30/− NADPH: Clint (μL/min/mg protein). As to the method: as §1, §2, §3, §4, §5
(Liver microsomes are a subcellular fraction often used to study metabolism.)

Data set [3] in a line: Hepatocyte stability assay, mouse hepatocytes. In kind it is in vitro ADME. The conditions noted are these: mouse, cryopreserved hepatocytes, 1 μM compound, 0.5 million cells/mL, 37° C., read-out: MH +/− NADPH: Clint (μL/min/million cells).
Excerpt: The […] of in vitro intrinsic clearance (Clint) for drug candidates in the early discovery stage is common practice in the pharmaceutical industry. The Clint values of drug candidates can help to confirm whether metabolism is the main clearance pathway when it is compared with the total body clearance in vivo. Hepatocytes are among the routinely used in vitro systems for measuring clearance. Hepatocytes have been reported to retain most of the phase I and phase II metabolic activities, and therefore, it is a useful tool to estimate the intrinsic clearance for potential drug candidates.
Metabolic stability of testing compound were be evaluated using human and mouse hepatocytes and can also be use rat, mouse, or other animal hepatocytes to predict intrinsic clearance. Cryopreserved hepatocytes were removed from the liquid nitrogen tank and thawed in a 37° C. water bath. As soon as the cells pulled away from the vial wall, they were decanted into 48 ml of warm HT medium. Cells were centrifuged for four minutes at 420 rpm (50 g). After removing the supernatant, pellet was re-suspended in warm DMEM medium. Cell density was counted by a hemacytometer.
The assay was carried out in 96-well microtiter plates. Compounds were incubated for 0, 60, 120, and 180 minutes at 37° C. with hepatocytes. Reaction mixtures (50 μL) contained a final concentration of 1 μM test compound, 0.5 million cells/mL hepatocytes in the DMEM medium. At each of the time points (for example, 0, 1, 2, and 3 hours), 200 μL of quench solution (100% acetonitrile with 0.1% formic acid) with internal standard was transferred to each well. Midazolam was included as a positive control to verify assay performance. Plates were sealed and centrifuged at 4° C. for 15 minutes at 4000 rpm. The supernatant is transferred to fresh plates for LC/MS/MS analysis.
Summarized conditions (customizable): [Compound]=[…], Positive control: midazolam and/or naloxone, [Hepatocyte]=0.5 million cells/Ml, time=0, 60, 120, and 180 min, t=37° C.
as §4
The extent of metabolism was calculated as the disappearance of the test compound, compared to the 0-min control reaction incubations. Initial rates were calculated for the compound concentration and used to determine t½ values and subsequently, the intrinsic clearance, Clint. Clint=(0.693)(1/t½(min))(mL incubation/million cells)

What is called IC50 is the point on the concentration scale where inhibition reaches its midpoint.

SMILES strings stand for the structures.

On to `Cc1oc(S(C)(=O)=O)nc1COc1ccc(C(C)(C)c2cc(Cl)c(OCCCl)c(C#N)c2)cc1` [Compound A80], for which, on androgen receptor (AR), the IC50 is below 500 nM. In addition, the values for the microsomal CLint at 1 μM in data set [1] and in data set [2] were below 12 µL/min/mg and 12 to 48 µL/min/mg, respectively. In addition, the hepatocyte CLint at 1 μM in data set [3] was at least 18 µL/min/1e6 cells.
Consider `CC(C)(c1ccc(OCc2cnc(NS(C)(=O)=O)nc2)cc1)c1cc(Cl)c(OCCCl)c(C#N)c1` [Compound A204], for which, at androgen receptor (AR), the half-maximal inhibitory concentration (IC50) was below 500 nM. For the same compound, the microsomal CLint at 1 μM in data set [1] and in data set [2] was below 12 µL/min/mg in each case. The hepatocyte CLint at 1 μM in data set [3] is below 4 µL/min/1e6 cells.
Consider `CSc1nc(C)c(COc2ccc(C(C)(C)c3cc(Cl)c(OCCCl)c(C#N)c3)cc2)o1` [Compound A119], for which the IC50 at androgen receptor (AR) is below 500 nM. Moreover, the microsomal CLint at 1 μM in data set [1] and in data set [2] was at least 48 µL/min/mg each time. In addition, the hepatocyte CLint at 1 μM in data set [3] was 4 to 18 µL/min/1e6 cells.
`CC(Oc1ccc(C(C)(C)c2cc(Cl)c(OCCCl)c(C#N)c2)cc1)c1ncoc1S(C)(=O)=O` (stereo not drawn) [Compound A79]: the concentration for half-maximal inhibition (IC50) on androgen receptor (AR) is below 500 nM. Besides, the microsomal CLint at 1 μM was below 12 µL/min/mg in data set [1] and at least 48 µL/min/mg in data set [2]. The hepatocyte CLint at 1 μM in data set [3] is at least 18 µL/min/1e6 cells.
Consider `CC(C)(c1ccc(OCc2coc(S(C)(=O)=O)c2)cc1)c1cc(Cl)c(OCCCl)c(C#N)c1` [Compound A208], for which the IC50 on androgen receptor (AR) is below 500 nM. Moreover, the microsomal CLint at 1 μM in data set [1] and in data set [2] was below 12 µL/min/mg in each case. Also, the hepatocyte CLint at 1 μM in data set [3] is below 4 µL/min/1e6 cells.
Regarding `CSc1ncc(COc2ccc(C(C)(C)c3cc(Cl)c(OCCCl)c(Cl)c3)cc2)o1` [Compound A111], on androgen receptor (AR), the IC50 is below 500 nM. Further, the microsomal CLint at 1 μM in data set [1] and in data set [2] was 12 to 48 µL/min/mg throughout. Besides, the hepatocyte CLint at 1 μM in data set [3] was in the range of 4 to 18 µL/min/1e6 cells.
For the compound `CC(C)(c1ccc(C(=O)Nc2ccnc(N)n2)cc1)c1cc(Cl)c(OCCCl)c(Cl)c1` [Compound A146], the microsomal CLint at 1 μM in data set [1] is 12 to 48 µL/min/mg; in data set [2], below 12 µL/min/mg. The hepatocyte CLint at 1 μM in data set [3] is at least 18 µL/min/1e6 cells.
On to `CC(O)(c1ccc(OCc2ocnc2S(C)(=O)=O)cc1)c1cc(Cl)c(OCCCl)c(C#N)c1` (stereo not drawn) [Compound A77], for which the IC50 at androgen receptor (AR) lay within 500 to 2000 nM. Also, the microsomal CLint at 1 μM was 12 to 48 µL/min/mg in data set [1] and at least 48 µL/min/mg in data set [2].
Consider `CC(C)(c1ccc(NC(=O)c2ocnc2S(C)(=O)=O)cc1)c1cc(Cl)c(OCCCl)c(Cl)c1` [Compound A73], for which the IC50 at androgen receptor (AR) was 500 to 2000 nM. Besides, the microsomal CLint at 1 μM in data set [1] and in data set [2] was below 12 µL/min/mg in each case.
With `CC(C)(c1ccc(OCc2csc(S(C)(=O)=O)n2)cc1)c1cc(Cl)c(OCCCl)c(C#N)c1` [Compound A144], the microsomal CLint at 1 μM in data set [1] and in data set [2] was 12 to 48 µL/min/mg in each case. In data set [3], the hepatocyte CLint at 1 μM is at least 18 µL/min/1e6 cells.
Regarding `CC(C)(c1ccc(OCc2ocnc2C(N)=O)cc1)c1cc(Cl)c(OCCCl)c(Cl)c1` [Compound A45], at androgen receptor (AR), the concentration for half-maximal inhibition (IC50) was 500 to 2000 nM. For the same compound, the microsomal CLint at 1 μM in data set [1] and in data set [2] was below 12 µL/min/mg in each case.
As for `CC(C)(C)C(=O)N(c1ccc(OCc2coc(NS(C)(=O)=O)n2)cc1)c1cc(Cl)c(OCCCl)c(C#N)c1` [Compound A127], the microsomal CLint at 1 μM in data set [1] and in data set [2] was 12 to 48 µL/min/mg each time. Besides, in data set [3], the hepatocyte CLint at 1 μM lay in the range of 4 to 18 µL/min/1e6 cells.
With `CC(C)(c1cc(Cl)c(OCCCl)c(Cl)c1)c1ccc(N2C(=O)N(S(C)(=O)=O)C(C)(C)C2=O)c(C#N)c1` [Compound B10], the IC50 on androgen receptor (AR) was above 2000 nM. Besides, the microsomal CLint at 1 μM in data set [1] was below 12 µL/min/mg; in data set [2] it was 12 to 48 µL/min/mg.
As to `CC(C)(c1ccc(OCc2ocnc2S(C)(=O)=O)cc1)c1cc(Cl)c(OCCCCl)c(Cl)c1` [Compound A3, 5-[[4-[1-[3,5-dichloro-4-(3-chloropropoxy)phenyl]-1-methyl-ethyl]phenoxy]methyl]-4-methylsulfonyl-oxazole], the concentration for half-maximal inhibition (IC50) at androgen receptor (AR) was in the range of 500 to 2000 nM. Besides, the microsomal CLint at 1 μM in data set [1] and in data set [2] was below 12 µL/min/mg each time.
As to `CN1C(=O)N(Cc2ccc(C(C)(C)c3cc(Cl)c(OCCCl)c(Cl)c3)cc2)C(=O)C1(C)C` [Compound B2, 3-(4-(2-(3,5-Dichloro-4-(2-chloroethoxy)phenyl)propan-2-yl)benzyl)-1,5,5-trimethylimidazolidine-2,4-dione], the IC50 on androgen receptor (AR) is below 500 nM. Moreover, the microsomal CLint at 1 μM in data set [1] and in data set [2] was at least 48 µL/min/mg each time.

Source of the values: patent US11059795B2, “Androgen receptor modulators and methods for their use” (ESSA Pharma, Inc., priority 2018, dated 2021).
